Assay results as given in ChEMBL document CHEMBL2424610, “Design, synthesis, and evaluation of 4-(substituted)phenyl-2-thioxo-3,4-dihydro-1H-chromino[4,3-d]pyrimidin-5-one and 4-(substituted)phenyl-3,4-dihydro-1H-chromino[4,3-d]pyrimidine-2,5-dione analogs as antitubercular agents” (Med Chem Res, 2013).

Key:
[1] = system: Mycobacterium tuberculosis; test: Antitubercular activity against Mycobacterium tuberculosis H37Rv ATCC 27294 assessed as growth inhibition at 128 uM after 4 days by microplate Alamar blue assay; format: functional; conditions: H37Rv ATCC 27294, 96 h, read-out: GI
[2] = system: Mycobacterium tuberculosis; test: Antitubercular activity against Mycobacterium tuberculosis H37Rv ATCC 27294 assessed as growth inhibition at 128 uM by luminescence-based low oxygen-recovery assay; format: functional; conditions: read-out: GI
Vero = test: Cytotoxicity against african green monkey Vero cells; format: cell-based; conditions: Chlorocebus sabaeus

| Compound | inhibition of growth at 128 µM [1] | inhibition of growth at 128 µM [2] | IC50 (Vero) |
| --- | --- | --- | --- |
| COc1ccc(C2NC(=O)Nc3c2c(=O)oc2ccccc32)cc1OC (stereo not drawn) | 0% | 0% | > 128 µM |
| COc1ccc(C2NC(=O)Nc3c2c(=O)oc2ccc(C)cc32)cc1 (stereo not drawn) | 58% | 62% | 101 µM |
| COc1ccc(C2NC(=O)Nc3c2c(=O)oc2ccc(C)cc32)cc1OC (stereo not drawn) | 55% | 35% | > 128 µM |
| COc1cc(C2NC(=O)Nc3c2c(=O)oc2ccccc32)ccc1O (stereo not drawn) | 37% | 1% | > 128 µM |
| O=C1Nc2c(c(=O)oc3ccccc23)C(c2ccccc2O)N1 (stereo not drawn) | 45% | 37% | 122 µM |
| O=C1Nc2c(c(=O)oc3ccccc23)C(c2cccc(Br)c2)N1 (stereo not drawn) | 7% | 15% | 106 µM |
| O=c1oc2ccccc2c2c1C(c1ccccc1)NC(=S)N2 (stereo not drawn) | 10% | 20% | > 128 µM |
| COc1ccc(C2NC(=S)Nc3c2c(=O)oc2ccccc32)cc1 (stereo not drawn) | 0% | 0% | > 128 µM |
| COc1ccc(C2NC(=S)Nc3c2c(=O)oc2ccccc32)cc1OC (stereo not drawn) | 0% | 0% | > 128 µM |
| COc1ccc(C2NC(=S)Nc3c2c(=O)oc2ccc(C)cc32)cc1 (stereo not drawn) | 0% | 1% | > 128 µM |
| COc1ccc(C2NC(=S)Nc3c2c(=O)oc2ccc(C)cc32)cc1OC (stereo not drawn) | 9% | 14% | > 128 µM |
| COc1cc(C2NC(=S)Nc3c2c(=O)oc2ccccc32)ccc1O (stereo not drawn) | 0% | 0% | > 128 µM |
| O=c1oc2ccccc2c2c1C(c1cccc(Br)c1)NC(=S)N2 (stereo not drawn) | 12% | 59% | 47.4 µM |
| Cc1ccc2oc(=O)c3c(c2c1)NC(=S)NC3c1cccc(Br)c1 (stereo not drawn) | 32% | 61% | 47.6 µM |
| O=C1Nc2c(c(=O)oc3ccccc23)C(c2ccccc2)N1 (stereo not drawn) | 0% | 17% | 84.7 µM |
| COc1ccc(C2NC(=O)Nc3c2c(=O)oc2ccccc32)cc1 (stereo not drawn) | 8% | 4% | 119 µM |
